Literature values in US6558704B1, “Process for preparing pellets containing up to 90 wt.% of a pharmaceutical active ingredient” (Gruenenthal GmbH, priority 1999, dated 2003).
Counter-ions that a name gives are not always drawn.

Compound	solubility in water
CN(C)CCCN1c2ccccc2Sc2ccc(Cl)cc21 [chlorpromazine hydrochloride]	2500 mg/mL
Cc1c(N(C)CS(=O)(=O)[O-])c(=O)n(-c2ccccc2)n1C.[Na+] [metamizol-Na]	> 1000 mg/mL
